System: MDR1-MDCK cell monolayers

Row | Compound | Permeability (in words)
1 | COc1ccc(-c2csc(Nc3ccc4ccccc4n3)n2)cc1OC [Compound 18, [4-(3,4-dimethoxyphenyl)-thiazol-2-yl]-quinolin-2-yl-amine] | greater permeability in the absorptive direction
2 | COc1ccc(-c2csc(Nc3ccc(C(F)(F)F)cn3)n2)cc1OC [Compound 12, [4-(3,4-dimethoxyphenyl)-thiazol-2-yl]-(5-trifluoromethylpyridin-2-yl)-amine] | greater permeability in the absorptive direction
3 | Cc1ccc(Nc2nc(-c3c(-c4ccccc4)noc3C)cs2)nc1 [Compound 28, [4-(5-Methyl-3-phenylisoxazol-4-yl)-thiazol-2-yl]-(5-methylpyridin-2-yl)-amine] | greater permeability in the absorptive direction

Reference: article PMC3041857 (Journal of medicinal chemistry, 2011)
